Data on five compounds can be found in paper PMC7271289, “Anti-Inflammatory and Anticoagulant Activities of Synthesized NSAID Prodrug Esters” (Scientifica, 2020).

Where two headings read alike, the source gives them in different places.

Assay [1] addresses T1, COX2 (Homo sapiens, UniProt P35354).
T1 construct: purchased Cayman Chemical, USA 560131
T1 sequence (P35354 18-604): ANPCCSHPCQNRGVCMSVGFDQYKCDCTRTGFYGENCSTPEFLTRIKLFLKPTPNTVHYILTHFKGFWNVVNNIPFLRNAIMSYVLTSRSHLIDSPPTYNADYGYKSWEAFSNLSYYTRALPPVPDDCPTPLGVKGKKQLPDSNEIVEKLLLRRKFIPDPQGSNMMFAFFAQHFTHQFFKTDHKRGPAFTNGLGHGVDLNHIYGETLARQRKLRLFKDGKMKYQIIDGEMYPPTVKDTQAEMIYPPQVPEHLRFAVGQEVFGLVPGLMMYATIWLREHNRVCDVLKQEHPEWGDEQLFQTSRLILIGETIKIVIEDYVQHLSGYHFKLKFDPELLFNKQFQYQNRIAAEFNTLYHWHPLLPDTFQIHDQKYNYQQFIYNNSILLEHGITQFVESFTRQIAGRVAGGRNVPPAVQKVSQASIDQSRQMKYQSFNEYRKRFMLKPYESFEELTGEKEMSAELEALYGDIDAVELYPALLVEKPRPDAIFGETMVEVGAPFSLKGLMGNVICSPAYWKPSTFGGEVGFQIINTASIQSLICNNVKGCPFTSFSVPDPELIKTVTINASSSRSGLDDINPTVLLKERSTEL
As to the kind of experiment: biochemical. The procedure:
IR (infrared) spectra were done using FTIR (Thermo Fisher Nicolet IS5). […] Nuclear magnetic resonance (NMR) spectra were obtained using the Bruker Avance (300 MHz) spectrometer, micropipettes (Finnpipette, Finland), incubator (Nuve, Turkey), syringe filter 0.45 μm pore size (Microlab, China), microbroth plate (Greiner bio-one, North America), and LABiTec (Germany) for PT and aPTT tests.
The plate is washed with a buffer solution, and Ellman's reagent, which contains the substrate of acetylcholinesterase, is added to the well. […] The anti-inflammatory effect of the tested compounds was evaluated by calculating the percentage inhibition of PGE2 production.

For assay [2], the system named is platelet poor citrated plasma. As to the kind of experiment: Prothrombin time (PT) test. In kind it is biochemical, human. As to conditions: drug sample 3000 mg/L; for PT Average ± SD: average of three volunteers; for PT: equal volume with plasma, 5 min at 37°C. The procedure:
(§1) PT and aPTT tests were carried out simultaneously. Blood samples from three healthy volunteers were collected in sodium citrated blood tubes (Vacutainer, BD). Blood samples were then centrifuged for 15 min at 1500 rpm to prepare platelet poor citrated plasma. The LABiTec (Germany) apparatus was used for the determination of PT and aPTT. Equal volumes of drug samples (3000 mg/L) and platelet-depleted plasma were incubated for 5 min at 37°C. The PT test was performed as follows: a 100 μl of tissue thromboplastin (HUMAN) was added to 50 μl of prewarmed mixture, and clotting time was measured. For the aPTT test, 50 μl of rabbit brain extract was added to equal volume of the prewarmed platelet poor plasma-extract mixture incubated for 1 minute after which 50 μl of 0.025 M calcium chloride (HUMAN) was added and clotting time was measured; PBS was used as control.

Assay [3] relates to platelet poor citrated plasma. As to the kind of experiment: Activated partial thromboplastin time (aPTT) test. In kind it is biochemical, human. The conditions noted are these: drug sample 3000 mg/L; for aPTT Average ± SD: average of three volunteers; for aPTT: equal volume with plasma, 5 min at 37°C. The procedure:
as §1

In assay [4] the target is T2, COX1 (Ovis aries, UniProt P05979).
T2 sequence (P05979 25-600): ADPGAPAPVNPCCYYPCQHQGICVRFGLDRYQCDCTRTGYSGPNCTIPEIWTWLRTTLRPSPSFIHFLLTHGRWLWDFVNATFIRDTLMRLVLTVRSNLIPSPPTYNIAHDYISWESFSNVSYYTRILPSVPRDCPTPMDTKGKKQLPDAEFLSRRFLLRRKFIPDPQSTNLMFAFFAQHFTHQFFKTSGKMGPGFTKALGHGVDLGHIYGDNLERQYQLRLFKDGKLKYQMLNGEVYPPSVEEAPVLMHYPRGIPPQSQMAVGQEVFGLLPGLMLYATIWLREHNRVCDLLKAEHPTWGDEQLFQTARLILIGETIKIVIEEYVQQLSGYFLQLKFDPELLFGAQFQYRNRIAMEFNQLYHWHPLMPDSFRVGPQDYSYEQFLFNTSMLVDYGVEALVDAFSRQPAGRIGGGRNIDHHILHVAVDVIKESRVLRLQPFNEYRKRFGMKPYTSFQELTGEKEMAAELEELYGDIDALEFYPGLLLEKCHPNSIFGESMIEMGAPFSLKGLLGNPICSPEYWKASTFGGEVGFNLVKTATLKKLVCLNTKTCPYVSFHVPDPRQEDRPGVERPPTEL
Nature of the assay: COX inhibitor screening assay kit (Cayman No. 560131), COX1. In kind it is biochemical. On the set-up: purchased Cayman Chemical, USA 560131. As to conditions: for IC50: ELISA kit, calculated from percentage inhibition of PGE2 production, read-out: IC50 for COX1 enzyme (converted). Here is the method:
The instrumentation used in this project includes magnetic stirrer and heater (LM-1003), weighing balance (Adventurer-OHAVS-AR2140), and rotaevaporator (Heidolph-OB2000). IR (infrared) spectra were done using FTIR (Thermo Fisher Nicolet IS5). The UV-VIS spectra were done using the JENWAY-7315 spectrophotometer. Nuclear magnetic resonance (NMR) spectra were obtained using the Bruker Avance (300 MHz) spectrometer, micropipettes (Finnpipette, Finland), incubator (Nuve, Turkey), syringe filter 0.45 μm pore size (Microlab, China), microbroth plate (Greiner bio-one, North America), and LABiTec (Germany) for PT and aPTT tests. The Cyclooxygenase (COX) enzyme inhibition test was performed using COX inhibitor screening assay kit No. 560131 Cayman Chemical, USA and was read by Elisaplate Reader (BioRad, Japan).
COX1 and COX2 inhibition activities were determined using a COX inhibitor screening assay kit No. 560131 by Cayman Chemical, USA. The plate is washed with a buffer solution, and Ellman's reagent, which contains the substrate of acetylcholinesterase, is added to the well. The yellow product of this enzymatic reaction is determined spectrophotometrically in a microplate reader (BioRad, Japan) at 415 nm. […]. The anti-inflammatory effect of the tested compounds was evaluated by calculating the percentage inhibition of PGE2 production.

Assay [5] concerns the target T1, COX2. The conditions noted are these: previous published literature; read-out: inhibition activity for COX2 enzyme (converted); cited from earlier work.
Assay [6] concerns the target T2, COX1. As to conditions: previous published literature; cited from earlier work.

For the compound `CC(=O)Nc1ccc(OC(=O)C(C)c2ccc(CC(C)C)cc2)cc1` (stereo not drawn) [Ibu-Para ester, 4-Acetamidophenyl 2-(4-isobutylphenyl) propanoate], the IC50 on COX2 [1] (ELISA kit, calculated from percentage inhibition of PGE2 production, read-out: IC50 for COX2 enzyme (converted)) is 6.5 µM; at COX1 [4] it was 1560 nM. Besides, the “PT Average ± SD” value in assay [2] is 23.8 ± 6.08 s. Moreover, the PT in assay [2] (volunteer 1) amounted to 19.8 s; in assay [2] (volunteer 2), 20.8 s; in assay [2] (volunteer 3) it was 30.8 s. Moreover, the “aPTT Average ± SD” value in assay [3] was found to be 71 ± 0.9 s. The aPTT came out at 71.2 s in assay [3] (volunteer 1), 71.8 s in assay [3] (volunteer 2) and 70 s in assay [3] (volunteer 3). Moreover, the “selectivity COX1 versus COX2” value at COX1 [4] (comparison of the COX1 and COX2 IC50) is “more selective towards COX1”.
`CC(C)Cc1ccc(C(C)C(=O)O)cc1` (stereo not drawn) [Ibuprofen, reference compound]: in assay [2], the “PT Average ± SD” value came out at 21.3 ± 3.3 s.
In the case of `COc1ccc2cc([C@H](C)C(=O)Oc3ccc(NC(C)=O)cc3)ccc2c1` [Nap-Para ester], the IC50 against COX2 [1] is 5.23 µM; at COX1 [4], 4130 nM. Besides, the “PT Average ± SD” value in assay [2] turned out to be 21.8 ± 2.86 s. Also, the PT was found to be 20.4 s in assay [2] (volunteer 1), 19.9 s in assay [2] (volunteer 2) and 25.1 s in assay [2] (volunteer 3). Also, the “aPTT Average ± SD” value in assay [3] is 69.9 ± 8.79 s; in assay [3] (listed as naproxen-paracetamol ester), 69.9 ± 7.7 s. In addition, the results for the aPTT in assay [3] (volunteer 1), in assay [3] (volunteer 2) and in assay [3] (volunteer 3) were 78.2 s, 70.9 s and 60.7 s, respectively.
Take `COc1ccc2cc([C@H](C)C(=O)O)ccc2c1` [Naproxen]: the IC50 on COX2 [5] was 5.65 µM.
Consider `CC(=O)Nc1ccc(O)cc1` [Paracetamol, reference compound], for which the “PT Average ± SD” value in assay [2] was found to be 21.7 ± 4.52 s. The PT in assay [2] (volunteer 1) worked out at 18.5 s; in assay [2] (volunteer 2) it was 19.4 s; in assay [2] (volunteer 3) it was 27.1 s. In assay [3], the “aPTT Average ± SD” value came out at 72 ± 8.7 s. Also, the aPTT in assay [3] (volunteer 1) stood at 73.1 s; in assay [3] (volunteer 2) it was 62.8 s; in assay [3] (volunteer 3), 80.2 s. At COX1 [6], the “inhibition activity for COX1 enzyme” value was “less IC50 inhibition activity”.
